# Laboratory results from paper PMC4928336, “A microalga, Euglena tuba induces apoptosis and suppresses metastasis in human lung and breast carcinoma cells through ROS-mediated regulation of MAPKs” (Cancer Cell International, 2016).
# Key:
# Assay in all cases: cells
# [1] = system: A549 cells; settings: for IC50: Homo sapiens, A549, 48 h, read-out: IC50 against A549; for IC50 against A549: WST-1, 48 h, mean ± SD (n = 6)
# Experimental: (§1) Cell viability were analysed using the WST-1 cell proliferation reagent according to the earlier described technique. All cells (1 × 10^4 cells/well) were treated for 48 h with concentrations ranging from 0–200 µg/ml of ETME, ascorbic acid, catechin, tannic acid, reserpine, methyl gallate and rutin. Cell proliferation and viability were measured by measuring absorbance of the coloured product spectrophotometrically at 460 nm using a microplate ELISA reader […] EX (Thermo Electron Corporation, USA).
# (§2) All spectrophotometric data were presented as the mean six times ±SD and cell cycle and ROS analysis data by FACS was introduced as the mean three times ±SD. The statistical analysis was determined by KyPlot version 2.0 beta 15 (32 bit). […] The IC50 values were compared by paired t test. P < 0.05 was considered significant.
# [2] = system: WI-38 cells; settings: for IC50: Homo sapiens, WI-38, 48 h, read-out: IC50 against WI-38; for IC50 against WI-38: WST-1, 48 h, mean ± SD (n = 6)
# Experimental: as §1, §2
# [3] = system: MCF-7 cells; settings: for IC50: Homo sapiens, MCF7, 48 h, read-out: IC50 against MCF-7; for IC50 against MCF-7: WST-1, 48 h, mean ± SD (n = 6)
# Experimental: as §1, §2
Compound,cytotoxicity against A549 cells [1],IC50 [1],cytotoxicity against WI-38 cells [2],IC50 [2],cytotoxicity against MCF-7 cells [3],IC50 [3],IC50 against A549 [1],IC50 against WI-38 [2],IC50 against MCF-7 [3]
COC(=O)c1cc(O)c(O)c(O)c1 [Methyl gallate],promissive cytotoxicity,77.2 ± 1.82 µg/mL,promissive cytotoxicity,344 ± 31.3 µg/mL,promissive cytotoxicity,53 ± 1.91 µg/mL,–,–,–
"O=C1O[C@H]([C@@H](O)CO)C(O)=C1O [Ascorbic acid, reference compound]",negligible cytotoxicity,6020 ± 3440 µg/mL,negligible cytotoxicity,6800 ± 2250 µg/mL,toxic,79.1 ± 2.2 µg/mL,–,–,–
"COC(=O)[C@H]1[C@H]2C[C@@H]3c4[nH]c5cc(OC)ccc5c4CCN3C[C@H]2C[C@@H](OC(=O)c2cc(OC)c(OC)c(OC)c2)[C@@H]1OC [Reserpine, reference compound]",promissive cytotoxicity,68.5 ± 1.73 µg/mL,promissive cytotoxicity,50.5 ± 1.48 µg/mL,promissive cytotoxicity,57.3 ± 2.29 µg/mL,–,–,–
Tannic acid,promissive cytotoxicity,–,promissive cytotoxicity,–,promissive cytotoxicity,–,302.25 ± 11.86 µg/mL,308.32 ± 8.32 µg/mL,97.24 ± 4.89 µg/mL
O.Oc1cc(O)c2c(c1)O[C@H](c1ccc(O)c(O)c1)[C@@H](O)C2 [Catechin],negligible cytotoxicity,–,negligible cytotoxicity,–,toxic,–,4010.65 ± 1849.57 µg/mL,753.56 ± 31.99 µg/mL,256.52 ± 17.14 µg/mL
C[C@@H]1O[C@@H](OC[C@H]2O[C@@H](Oc3c(-c4ccc(O)c(O)c4)oc4cc(O)cc(O)c4c3=O)[C@H](O)[C@@H](O)[C@@H]2O)[C@H](O)[C@H](O)[C@H]1O [Rutin],negligible cytotoxicity,4180 ± 1610 µg/mL,negligible cytotoxicity,1230 ± 195 µg/mL,toxic,271 ± 9.85 µg/mL,–,–,–
